US11414385B2, “Compounds and methods for treating, detecting, and identifying compounds to treat apicomplexan parasitic diseases” (The University of Chicago, priority 2015, dated 2022)

Molecular target: T1, Plasmodium falciparum bc1 complex cytochrome c reductase (Pfbc1) (Plasmodium falciparum, UniProt Q02768)
T1 construct: Parasite extract was then prepared by disruption with a sonicating probe; endogenous in cells; host or cells: P. falciparum 3D7 blood-stage parasites, saponin-freed and sonicated (crude parasite extract)
T1 sequence (Q02768 1-376): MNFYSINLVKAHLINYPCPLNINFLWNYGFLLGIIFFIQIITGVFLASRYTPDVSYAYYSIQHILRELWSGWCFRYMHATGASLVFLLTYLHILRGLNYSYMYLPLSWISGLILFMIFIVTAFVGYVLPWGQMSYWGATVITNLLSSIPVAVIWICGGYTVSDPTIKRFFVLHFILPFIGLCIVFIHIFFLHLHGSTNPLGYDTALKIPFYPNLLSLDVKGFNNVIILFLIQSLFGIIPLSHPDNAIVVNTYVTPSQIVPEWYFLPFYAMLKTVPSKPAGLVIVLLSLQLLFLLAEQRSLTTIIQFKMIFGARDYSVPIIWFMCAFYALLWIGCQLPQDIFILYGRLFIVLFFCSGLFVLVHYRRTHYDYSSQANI
Assay: Pfbc1 native assay (cytochrome c reduction by parasite extract)
Type: biochemical
Settings: compound 1 μM, mean ± s.e.m. of 4 independent experiments
Description: Plasmodium falciparum: 3D7 strain was obtained from the Liverpool School of Tropical Medicine. Protease cocktail inhibitor was obtained from Roche. Bradford protein assay dye reagent was obtained from Bio-Rad. All other reagents were obtained from Sigma-Aldrich. Decylubiquinol was produced as per Fisher et al. (Fisher et al. 2004)^21. In brief, 25 mg of decylubiquinone were dissolved in 400 μl of nitrogen-saturated hexane. An equal volume of aqueous 1 M sodium dithionite was added, and the mixture vortexed until colorless. The organic phase containing the decylubiquinol was collected, the solvent was evaporated under N2 and the decylubiquinol finally dissolved in 100 μl of 96% ethanol (acidified with 10 mM HCl). Concentrations of decylubiquinol was determined spectrophotometrically on a Cary 300 Bio UV/visible spectrophotometer (Varian, UK) from absolute spectra, using ε288-320=8.1 mM-1·cm^−1. Decylubiquinol was stored at −80° C. and used within two weeks.
The protocol for the preparation of parasite extract was adapted from Fisher et al. (Fisher et al. 2009)^22. Free parasites were prepared from infected erythrocytes pooled from five T75 flasks, by adding 5 volumes of 0.15% (w/v) saponin in phosphate-buffered saline (137 mM NaCl, 2.7 mM KCl, 1.76 mM K2HPO4, 8.0 mM Na2HPO4, 5.5 mM D-glucose, pH 7.4) for 5 min, followed by three washes by centrifugation in RPMI containing HEPES (25 mM), and a final resuspension in potassium phosphate buffer (50 mM K2HPO4, 50 mM KH2PO4, 2 mM EDTA, pH7.4) containing a protease inhibitor cocktail (Complete Mini; Roche). Parasite extract was then prepared by disruption with a sonicating probe for 5 s, followed by a 1 min rest period on ice to prevent the sample overheating. […] The protein concentration of the parasite extract was determined by Bradford protein assay (Bio-Rad).
Plasmodium falciparum bc1 complex cytochrome c reductase (Pfbc1) activity was measured by monitoring cytochrome c reduction at 550 versus 542 nm using a Cary 300 Bio UV-Visible Spectrophotometer (Varian, UK), using a protocol adapted from Fisher et al. (Fisher et al. 2009)^21-23. […]

Row | Structure (SMILES) | Inhibition of cytochrome c reduction (% atovaquone response) | inhibition at 1 µM (read-out: Inhibition of cytochrome c reduction (% atovaquone response)) [%]
1 | Cc1[nH]c2c(c(=O)c1-c1ccc(Oc3ccc(OC(F)(F)F)cc3)cc1)CCCC2 [JAG21, 2-methyl-3-(4-(4-(trifluoromethoxy)phenoxy)phenyl)-5,6,7,8-tetrahydroquinolin-4(1H)-one] | 86.4 ± 3.2 | 
2 | Cc1[nH]c2c(c(=O)c1-c1ccc(Oc3ccccc3)cc1)CCCC2 [MJM170] |  | 69.7 ± 11.3
